Results on 29 molecules are retold here after ChEMBL document CHEMBL1127516, “Synthesis and structure-activity relationships of deazaxanthines: analogs of potent A1- and A2-adenosine receptor antagonists” (J Med Chem, 1994).

One may read the Ki as a dissociation constant, usually derived from enzyme kinetics or from competition with a known ligand. In general, inhibition refers to the change of the read-out against control, counted positive when it falls.

In one experiment the target is T1, Adenosine receptor A1 (Rattus norvegicus, UniProt P25099).
T1 sequence (P25099 whole entry): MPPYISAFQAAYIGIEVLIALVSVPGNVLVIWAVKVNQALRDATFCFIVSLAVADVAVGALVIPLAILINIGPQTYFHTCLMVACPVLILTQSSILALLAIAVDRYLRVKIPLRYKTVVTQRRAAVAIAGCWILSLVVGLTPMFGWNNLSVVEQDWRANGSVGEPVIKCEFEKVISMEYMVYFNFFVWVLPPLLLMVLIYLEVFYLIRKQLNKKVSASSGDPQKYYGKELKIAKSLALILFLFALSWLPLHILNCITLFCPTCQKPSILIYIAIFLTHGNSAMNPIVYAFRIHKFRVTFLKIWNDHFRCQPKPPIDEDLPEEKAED
The experiment in a line: Binding affinity to A1 adenosine receptor from rat cortical membrane in presence of [3H]R-(phenylisopropyl)-adenosine.

The next experiment deals with Adenosine A2 receptor (Rattus norvegicus, UniProt P29276+P30543). The experiment in a line: Binding affinity to A2 adenosine receptor from rat striatal membrane in presence of [3H]5'-(N-ethylcarboximido)-adenosine.
The target of experiment [1] is Adenosine A2 receptor (Rattus norvegicus) (UniProt P29276+P30543). The experiment in a line: Percent inhibition of [3H]5'-(N-ethylcarboximido)-adenosine (NECA) binding to A2 adenosine receptor. It is filed as protein assay. Set-up: concentration or dose not given beside the values. The settings on record: concentration not given here.
Experiment [2] addresses T2, Adenosine receptor A1 (Rattus norvegicus) (UniProt P25099).
T2 sequence (whole entry): T1 sequence (P25099 whole entry)
Put plainly: Percent inhibition of [3H]R-(phenylisopropyl)-adenosine (PIA) binding to A1 adenosine receptor. The following applies: concentration not given here.

Consider `Cn1c(=O)c2[nH]ccc2n(C)c1=O`, for which the figures for the Ki on Adenosine receptor A1 and on Adenosine A2 receptor were 5400 nM and 12000 nM, respectively.

For `Cn1c(=O)c2cc[nH]c2n(C)c1=O`, the inhibitory constant (Ki) was 43000 nM at Adenosine receptor A1 and over 250000 nM at Adenosine A2 receptor. Moreover, the inhibition in experiment [1] stood at 39%.

As to `CCCn1c(=O)c2c(ccn2C)n(CCC)c1=O`, the figures for the Ki at Adenosine receptor A1 and on Adenosine A2 receptor were 2300 nM and 13000 nM, respectively.

Take `CCCn1c(=O)c2[nH]ccc2n(CCC)c1=O`: the Ki was 440 nM at Adenosine receptor A1 and 5100 nM at Adenosine A2 receptor.

In the case of `Cn1c(=O)c2c(cc(-c3ccc4ccccc4c3)n2O)n(C)c1=O`, the inhibition constant Ki on Adenosine receptor A1 came out at 220 nM; at Adenosine A2 receptor it was 1000 nM.

As to `Cn1c(=O)c2cc(-c3ccccc3)[nH]c2n(C)c1=O`, the Ki worked out at 3100 nM at Adenosine receptor A1 and 12000 nM at Adenosine A2 receptor.

Consider `Cn1c(=O)c2[nH]c(-c3ccc4ccccc4c3)cc2n(C)c1=O`, for which the Ki on Adenosine receptor A1 was 26 nM; on Adenosine A2 receptor, over 500 nM. In experiment [1], this molecule displayed an inhibition of 34%.

For `Cn1c(=O)c2[nH]c(-c3cccc4ccccc34)cc2n(C)c1=O`, the inhibition in experiment [2] is 33%; in experiment [1] it was 1.2%. The Ki on Adenosine receptor A1 and at Adenosine A2 receptor was over 30000 nM each time.

Take `Cn1c(=O)[nH]c2cc(-c3ccccc3)[nH]c2c1=O`: the inhibition constant Ki came out at 97 nM at Adenosine receptor A1 and 2000 nM on Adenosine A2 receptor.

On to `CCCn1c(=O)c2c(nc(-c3ccccc3)n2C)n(CCC)c1=O`, for which, at Adenosine A2 receptor, the Ki was determined as 15000 nM.

In the case of `Cn1c(=O)c2c(cc(-c3cccc4ccccc34)n2C)n(C)c1=O`, the inhibitory constant (Ki) on Adenosine receptor A1 was 9200 nM; at Adenosine A2 receptor, over 30000 nM. The inhibition in experiment [1] was found to be 22%.

For `CCCn1c(=O)c2c(ncn2C)n(CCC)c1=O`, on Adenosine A2 receptor, the Ki was 10000 nM.

For the molecule `Cn1c(=O)c2cc(-c3ccccc3)n(C)c2n(C)c1=O`, the inhibitory constant (Ki) stood at 11000 nM at Adenosine receptor A1 and 40000 nM on Adenosine A2 receptor.

Regarding `Cn1c(=O)c2c(cc(-c3ccccc3)n2C)n(C)c1=O`, the inhibition constant Ki on Adenosine A2 receptor is 14000 nM.

`Cn1c(=O)c2c(cc(/C=C/c3ccccc3)n2C)n(C)c1=O`: the inhibition constant Ki at Adenosine receptor A1 is 2600 nM; at Adenosine A2 receptor it was 260 nM.

As to `CCCn1c(=O)c2[nH]c(N(C)C)cc2n(CCC)c1=O`, the Ki came to 130 nM at Adenosine receptor A1 and 16000 nM on Adenosine A2 receptor.

For `Cn1c(=O)c2[nH]c(/C=C/c3ccccc3)cc2n(C)c1=O`, the values for the Ki at Adenosine receptor A1 and at Adenosine A2 receptor were 165 nM and 640 nM, respectively.

Turning to `Cn1c(=O)c2c(ccn2C)n(C)c1=O`, the inhibition constant Ki on Adenosine receptor A1 came out at 32000 nM; on Adenosine A2 receptor it was 72000 nM.

Consider `Cn1c(=O)c2[nH]c(-c3ccccc3)cc2n(C)c1=O`, for which the Ki at Adenosine receptor A1 came to 47 nM; at Adenosine A2 receptor it was 510 nM.

For `Cn1c(=O)c2c(cc(-c3cccc4ccccc34)n2O)n(C)c1=O`, the inhibition was found to be 47% in experiment [2] and 38% in experiment [1]. The Ki on Adenosine receptor A1 was over 30000 nM; at Adenosine A2 receptor, over 100000 nM.

For `CCCn1c(=O)[nH]c2cc[nH]c2c1=O`, the Ki at Adenosine receptor A1 was found to be 1700 nM; at Adenosine A2 receptor, 18000 nM.

As for `CCCn1c(=O)c2[nH]c(-c3ccccc3)cc2n(CCC)c1=O`, the figures for the Ki on Adenosine receptor A1 and at Adenosine A2 receptor were 13 nM and 450 nM, respectively.

`CCCn1c(=O)[nH]c2cc(-c3ccccc3)[nH]c2c1=O`: the results for the Ki at Adenosine receptor A1 and on Adenosine A2 receptor were 39 nM and 1200 nM, respectively.

`CCCn1c(=O)c2c(cc(-c3ccccc3)n2C)n(CCC)c1=O`: the Ki on Adenosine A2 receptor was found to be 5200 nM.

Regarding `Cn1c(=O)[nH]c2cc[nH]c2c1=O`, the Ki is 2900 nM on Adenosine receptor A1 and 34000 nM at Adenosine A2 receptor.

Regarding `Cn1c(=O)c2c(cc(-c3ccc4ccccc4c3)n2C)n(C)c1=O`, the Ki is 270 nM at Adenosine receptor A1 and 1100 nM at Adenosine A2 receptor.

In the case of `Cn1c(=O)c2c(cc(/C=C/c3ccccc3)n2O)n(C)c1=O`, the values for the Ki on Adenosine receptor A1 and at Adenosine A2 receptor were 560 nM and 1800 nM, respectively.

With `Cn1c(=O)c2c(nc(-c3ccccc3)n2C)n(C)c1=O`, the Ki on Adenosine A2 receptor worked out at 25000 nM.

For the molecule `Cn1c(=O)c2nc(-c3ccccc3)[nH]c2n(C)c1=O` [8-PHENYL THEOPHYLLINE], at Adenosine A2 receptor, the Ki is 830 nM.
